Data on nine molecules can be found in US20120053053A1, “PYRIMIDINE DERIVATIVES AND THEIR USE AS HERBICIDES” (SYNGENTA CROP PROTECTION, LLC, priority 2009, published 2012).

Holding throughout (type): in vivo
Assay [1] relates to Ipomea hederaceae (IPOHE). The experiment in a line: Post-emergence biological efficacy (percentage damage). Conditions: Ipomoea hederacea, 312 h, dose 1,000 g/ha, evaluated after 13 days, 100=total damage, 0=no damage. An outline of the steps:
(§1)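 Pot-grown plants are cultivated 8 days under glasshouse conditions (24/16 °C, 14 h light, 65% humidity), sprayed at a dose of 250 or 1000 g/ha, kept under the same conditions with twice-daily watering, and rated for damage after 13 days.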

In assay [2] the test system is Amaranthus retoflexus (AMARE). Described as above. Conditions: Amaranthus retroflexus, 312 h, dose 1,000 g/ha, evaluated after 13 days, 100=total damage, 0=no damage. An outline of the steps:
as §1

Assay [3] concerns Alopecurus myosuroides (ALOMY). The assay is described as above. Conditions: Alopecurus myosuroides, 312 h, dose 1,000 g/ha, evaluated after 13 days, 100=total damage, 0=no damage. An outline of the steps:
as §1

Assay [4] has as its system Solanum nigrum (SOLNI). The description is as above. The note with it: Solanum nigrum, 312 h, dose 1,000 g/ha, evaluated after 13 days, 100=total damage, 0=no damage. An outline of the steps:
as §1

Assay [5] concerns Echinochloa crus-galli (ECHCG). The assay is described as above. The note with it: Echinochloa crus-galli, 312 h, dose 1,000 g/ha, evaluated after 13 days, 100=total damage, 0=no damage. An outline of the steps: as §1
The test system of assay [6] is Setaria faberi (SETFA). The assay is described as above. The note with it: Setaria faberi, 312 h, dose 1,000 g/ha, evaluated after 13 days, 100=total damage, 0=no damage. An outline of the steps: as §1
Assay [7] concerns Ipomea hederaceae (IPOHE). The experiment in a line: Pre-emergence biological efficacy (percentage damage). Conditions: Ipomoea hederacea, 312 h, dose 1,000 g/ha, evaluated after 13 days, 100=total damage, 0=no damage. An outline of the steps: (§2)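 Sow seeds in pots of standard soil; hold 1 day in glasshouse (24/16 °C, 14 h light, 65% humidity). Spray aqueous solution from acetone/water (50:50) with 0.5% Tween 20 at 250 or 1000 g/ha. Grow on, watering twice daily; rate damage at 13 days.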

Assay [8] has as its system Amaranthus retoflexus (AMARE). The description is as above. Conditions: Amaranthus retroflexus, 312 h, dose 1,000 g/ha, evaluated after 13 days, 100=total damage, 0=no damage. An outline of the steps:
as §2

Assay [9] concerns Alopecurus myosuroides (ALOMY). Described as above. The note with it: Alopecurus myosuroides, 312 h, dose 1,000 g/ha, evaluated after 13 days, 100=total damage, 0=no damage. An outline of the steps:
as §2

Assay [10] concerns Solanum nigrum (SOLNI). The assay is described as above. Conditions: Solanum nigrum, 312 h, dose 1,000 g/ha, evaluated after 13 days, 100=total damage, 0=no damage. An outline of the steps:
as §2

Assay [11] concerns Echinochloa crus-galli (ECHCG). The assay is described as above. The note with it: Echinochloa crus-galli, 312 h, dose 1,000 g/ha, evaluated after 13 days, 100=total damage, 0=no damage. An outline of the steps:
as §2

Assay [12] deals with Setaria faberi (SETFA). The description is as above. The note with it: Setaria faberi, 312 h, dose 1,000 g/ha, evaluated after 13 days, 100=total damage, 0=no damage. An outline of the steps:
as §2

In the case of `C=Cc1c(N)nc(-c2ccc(Cl)c(N(C)C)c2F)nc1C(=O)O` [Compound 33-21, 4-Amino-2-(4-chloro-3-dimethylamino-2-fluorophenyl)-5-ethenylpyrimidine-6-carboxylic acid], the pest or weed control (in general, the degree to which the test organism was suppressed or injured, in per cent) at 1000 g/ha turned out to be 70% in assay [1]; 100% in [2]; 90% in assay [3]; 90% with Solanum nigrum (SOLNI) [4]; 100% in assay [5]; 100% in the assay with Setaria faberi (SETFA) [6]. Moreover, the pest or weed control at 1000 g/ha in assay [7] was 80%; in assay [8], 100%; in [9], 90%; with Solanum nigrum (SOLNI) [10], 100%; in assay [11] it was 100%; in the assay on Setaria faberi (SETFA) [12], 100%.
Regarding `COC(=O)c1nc(-c2ccc(Cl)c(N(C)C)c2F)nc(N)c1C` [Compound 33-41], the pest or weed control at 1000 g/ha amounted to 10% in [1]; 100% in assay [2]; 30% in assay [3]; 70% with Solanum nigrum (SOLNI) [4]; 50% in [5]; 70% in the assay on Setaria faberi (SETFA) [6]. Moreover, the pest or weed control at 1000 g/ha in assay [7] is 0%; in assay [8], 20%; in [9], 10%; in the assay on Solanum nigrum (SOLNI) [10], 30%; in assay [11], 10%; with Setaria faberi (SETFA) [12], 30%.
Regarding `COC(=O)c1nc(-c2ccc(Cl)c(N(C)C)c2F)nc(N)c1C(C)=O` [Compound 33-53, 4-Amino-2-(4-chloro-3-dimethylamino-2-fluorophenyl)-6-methoxycarbonyl-5-methylcarbonyl-pyrimidine], the pest or weed control at 1000 g/ha in assay [1] worked out at 40%; in assay [2], 100%; in assay [3], 10%; in the assay with Solanum nigrum (SOLNI) [4], 50%; in assay [5], 20%; with Setaria faberi (SETFA) [6], 20%. Besides, the pest or weed control at 1000 g/ha (in assay [7]; in [8]; in assay [9]; in the assay with Solanum nigrum (SOLNI) [10]; in assay [11]; with Setaria faberi (SETFA) [12]) was 0% in each case.
As for `C=Cc1c(N)nc(-c2ccc(Cl)c(N(C)C)c2F)nc1C(=O)OC` [Compound 33-61], the pest or weed control at 1000 g/ha in [1] was 90%; in [2], 70%; in assay [3], 20%; in the assay with Solanum nigrum (SOLNI) [4], 80%; in [5] it was 20%; in the assay with Setaria faberi (SETFA) [6] it was 30%. The pest or weed control at 1000 g/ha in [7] stood at 40%; in assay [8], 50%; in assay [9], 0%; in the assay with Solanum nigrum (SOLNI) [10] it was 30%; in [11], 0%; in the assay with Setaria faberi (SETFA) [12] it was 10%.
Turning to `C=C(C)c1c(N)nc(-c2ccc(Cl)c(N(C)C)c2F)nc1C(=O)OC` [Compound 33-64, 4-Amino-2-(4-chloro-3-dimethylamino-2-fluorophenyl)-6-methoxycarbonyl-5-(prop-1-en-2-yl)-pyrimidine], the pest or weed control at 1000 g/ha in assay [1] stood at 10%; in assay [2], 10%; in assay [3], 0%; with Solanum nigrum (SOLNI) [4] it was 20%; in [5], 0%; in the assay on Setaria faberi (SETFA) [6], 0%. In addition, the pest or weed control at 1000 g/ha (in [7]; in [8]; in assay [9]; with Solanum nigrum (SOLNI) [10]; in [11]; with Setaria faberi (SETFA) [12]) was 0% throughout.
`C=C(OCC)c1c(N)nc(-c2ccc(Cl)c(N(C)C)c2F)nc1C(=O)OC` [Compound 33-67, 4-Amino-2-(4-chloro-3-dimethylamino-2-fluorophenyl)-5-(1-ethoxyethenyl)-6-methoxycarbonyl-pyrimidine]: the pest or weed control at 1000 g/ha in assay [1] is 20%; in assay [2], 10%; in [3] it was 0%; with Solanum nigrum (SOLNI) [4] it was 40%; in [5], 0%; with Setaria faberi (SETFA) [6], 0%. Besides, the pest or weed control at 1000 g/ha stood at 10% in assay [7]; 0% in assay [8]; 0% in [9]; 0% in the assay with Solanum nigrum (SOLNI) [10]; 0% in assay [11]; 0% in the assay on Setaria faberi (SETFA) [12].
On to `C=Cc1c(N)nc(-c2ccc(Cl)c(N(C)C)c2F)nc1C(=O)OCC` [Compound 33-101, 4-amino-2-(4-chloro-3-dimethylamino-2-fluorophenyl)-5-ethenyl-6-ethoxycarbonyl-pyrimidine], for which the pest or weed control at 1000 g/ha in assay [1] was 60%; in assay [2], 100%; in assay [3], 80%; in the assay on Solanum nigrum (SOLNI) [4], 90%; in assay [5], 90%; in the assay on Setaria faberi (SETFA) [6], 80%. In addition, the pest or weed control at 1000 g/ha in [7] turned out to be 30%; in assay [8] it was 100%; in [9], 60%; in the assay with Solanum nigrum (SOLNI) [10] it was 90%; in [11] it was 90%; in the assay with Setaria faberi (SETFA) [12] it was 90%.
As to `C=Cc1c(N)nc(-c2ccc(Cl)c(N(C)C)c2F)nc1C(=O)OC(C)C` [Compound 33-306, 4-Amino-2-(4-chloro-3-dimethylamino-2-fluorophenyl)-5-ethenyl-6-isopropoxycarbon-yl-pyrimidine], the pest or weed control at 1000 g/ha in assay [1] stood at 30%; in assay [2], 100%; in [3], 40%; with Solanum nigrum (SOLNI) [4], 100%; in assay [5], 70%; in the assay on Setaria faberi (SETFA) [6], 70%. Also, the pest or weed control at 1000 g/ha in assay [7] was found to be 0%; in [8], 40%; in [9], 20%; with Solanum nigrum (SOLNI) [10], 80%; in assay [11] it was 20%; in the assay on Setaria faberi (SETFA) [12] it was 20%.
`C=Cc1c(N)nc(-c2ccc(Cl)c(N(C)C)c2F)nc1C(=O)OCCC` [Compound 33-316]: the pest or weed control at 1000 g/ha in assay [1] is 40%; in [2], 100%; in assay [3], 70%; in the assay with Solanum nigrum (SOLNI) [4] it was 90%; in [5], 100%; with Setaria faberi (SETFA) [6], 90%. Further, the pest or weed control at 1000 g/ha amounted to 10% in assay [7]; 90% in assay [8]; 60% in assay [9]; 80% with Solanum nigrum (SOLNI) [10]; 90% in [11]; 70% in the assay on Setaria faberi (SETFA) [12].
